Experimental data from the supplement of paper PMC10307832.

What was measured:
Assay in all cases: relative viability (nuclei count vs DMSO), 5 days (fraction); higher = more cells survive
[1] = compound: C=CCNC1=C2C[C@@H](C)C[C@H](OC)[C@H](O)[C@@H](C)/C=C(\C)[C@H](OC(N)=O)[C@@H](OC)/C=C\C=C(/C)C(=O)NC(=CC1=O)C2=O [17-AAG] + Cc1cc(Nc2cc(N3CCN(C)CC3)nc(Sc3ccc(NC(=O)C4CC4)cc3)n2)n[nH]1 [Tozasertib] (partner 0.1 µM)
How it was run: (§1)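 For relative viability, nuclei counts in treated wells were divided by those in vehicle wells. Lung cancer cell lines had been pin-tool dosed in 1536-well plates the day after seeding and cultured for 5 days, then fixed and stained in one step (final 0.05% Triton X-100, 1% formaldehyde, 1 ug/ml Hoechst) and imaged at 4×. Doses were one drug alone or a fixed anchor-drug dose plus five library-drug doses (not always all listed) in √10 steps, and values are duplicate-plate medians.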

[2] = compound: C=CCNC1=C2C[C@@H](C)C[C@H](OC)[C@H](O)[C@@H](C)/C=C(\C)[C@H](OC(N)=O)[C@@H](OC)/C=C\C=C(/C)C(=O)NC(=CC1=O)C2=O [17-AAG] + CCNC(=O)c1noc(-c2cc(C(C)C)c(O)cc2O)c1-c1ccc(CN2CCOCC2)cc1 [Luminespib] (partner 0.01 µM)
How it was run: as §1

[3] = compound: C=CCNC1=C2C[C@@H](C)C[C@H](OC)[C@H](O)[C@@H](C)/C=C(\C)[C@H](OC(N)=O)[C@@H](OC)/C=C\C=C(/C)C(=O)NC(=CC1=O)C2=O [17-AAG] + Cc1nc(Nc2ncc(C(=O)Nc3c(C)cccc3Cl)s2)cc(N2CCN(CCO)CC2)n1 [Dasatinib] (partner 0.075 µM)
How it was run: as §1

[4] = compound: C=CCNC1=C2C[C@@H](C)C[C@H](OC)[C@H](O)[C@@H](C)/C=C(\C)[C@H](OC(N)=O)[C@@H](OC)/C=C\C=C(/C)C(=O)NC(=CC1=O)C2=O [17-AAG] + Cc1nc(NC(=O)N2CCC[C@H]2C(N)=O)sc1-c1ccnc(C(C)(C)C(F)(F)F)c1 [Alpelisib] (partner 2 µM)
How it was run: as §1

| Cell Line | relative viability ([1]; first compound 0.00128 µM) | relative viability ([1]; first compound 0.004048 µM) | relative viability ([1]; first compound 0.0128 µM) | relative viability ([1]; first compound 0.04048 µM) | relative viability ([1]; first compound 0.128 µM) | relative viability ([2]; first compound 0.00128 µM) | relative viability ([2]; first compound 0.004048 µM) | relative viability ([2]; first compound 0.0128 µM) | relative viability ([2]; first compound 0.04048 µM) | relative viability ([2]; first compound 0.128 µM) | relative viability ([3]; first compound 0.00128 µM) | relative viability ([3]; first compound 0.004048 µM) | relative viability ([3]; first compound 0.0128 µM) | relative viability ([3]; first compound 0.04048 µM) | relative viability ([3]; first compound 0.128 µM) | relative viability ([4]; first compound 0.00128 µM) | relative viability ([4]; first compound 0.004048 µM) | relative viability ([4]; first compound 0.0128 µM) | relative viability ([4]; first compound 0.04048 µM) | relative viability ([4]; first compound 0.128 µM) |
| --- | --- | --- | --- | --- | --- | --- | --- | --- | --- | --- | --- | --- | --- | --- | --- | --- | --- | --- | --- | --- |
| NCI-H2228 | 0.301 | 0.151 | 0.105 | 0.131 | 0.128 | 0.124 | 0.102 | 0.11 | 0.157 | 0.107 | 0.46 | 0.119 | 0.0679 | 0.089 | 0.0837 | 0.781 | 0.273 | 0.16 | 0.19 | 0.153 |
| NCI-H2347 | 0.564 | 0.518 | 0.507 | 0.278 | 0.303 | 0.62 | 0.278 | 0.274 | 0.299 | 0.374 | 0.308 | 0.248 | 0.216 | 0.176 | 0.118 | 1.12 | 0.961 | 1.1 | 0.565 | 0.417 |
| NCI-H2405 | 0.776 | 0.765 | 0.451 | 0.28 | 0.156 | 0.542 | 0.335 | 0.256 | 0.239 | 0.184 | 0.195 | 0.173 | 0.167 | 0.128 | 0.149 | 0.942 | 0.695 | 0.221 | 0.233 | 0.16 |
| NCI-H3122 | 0.473 | 0.187 | 0.0915 | 0.104 | 0.0922 | 0.099 | 0.059 | 0.0637 | 0.0599 | 0.096 | 0.854 | 0.754 | 0.0689 | 0.0681 | 0.0701 | 0.687 | 0.533 | 0.198 | 0.196 | 0.173 |
| PC-3 [JPC-3] | 0.894 | 0.847 | 0.922 | – | 0.839 | 0.766 | 0.723 | 0.71 | – | 0.538 | 1.02 | 0.966 | 1 | – | 0.815 | 0.976 | 1.03 | 1.02 | – | 0.955 |
| PC-14 | 0.55 | 0.472 | 0.27 | 0.067 | 0.0544 | 0.146 | 0.111 | 0.143 | 0.162 | 0.128 | 0.179 | 0.0725 | 0.0375 | 0.0586 | 0.0476 | 0.939 | 0.726 | 0.662 | 0.106 | 0.0874 |
